Activity calls are given as the source filed them.
Legend:
[1] = target: T1, N-formyl peptide receptor 2 (Homo sapiens) (UniProt P25090); experiment: Agonist activity at human FPR2 expressed in RBL-2H3 cells assessed as induction of calcium mobilization; type: functional, cell-based
T1 sequence (whole entry): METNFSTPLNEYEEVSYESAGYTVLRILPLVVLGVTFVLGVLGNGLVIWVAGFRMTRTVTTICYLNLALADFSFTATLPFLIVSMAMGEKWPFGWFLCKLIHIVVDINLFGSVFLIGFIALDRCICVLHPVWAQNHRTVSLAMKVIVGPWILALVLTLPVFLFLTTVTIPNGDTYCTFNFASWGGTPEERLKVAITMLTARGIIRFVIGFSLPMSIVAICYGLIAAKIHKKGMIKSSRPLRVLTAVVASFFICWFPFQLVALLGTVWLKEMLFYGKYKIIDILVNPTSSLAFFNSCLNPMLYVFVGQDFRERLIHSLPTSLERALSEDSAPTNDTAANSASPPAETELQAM

[2] = target: T2, fMet-Leu-Phe receptor (Homo sapiens) (UniProt P21462); experiment: Agonist activity at human FPR1 expressed in RBL-2H3 cells assessed as induction of calcium mobilization; type: functional, cell-based
T2 sequence (whole entry): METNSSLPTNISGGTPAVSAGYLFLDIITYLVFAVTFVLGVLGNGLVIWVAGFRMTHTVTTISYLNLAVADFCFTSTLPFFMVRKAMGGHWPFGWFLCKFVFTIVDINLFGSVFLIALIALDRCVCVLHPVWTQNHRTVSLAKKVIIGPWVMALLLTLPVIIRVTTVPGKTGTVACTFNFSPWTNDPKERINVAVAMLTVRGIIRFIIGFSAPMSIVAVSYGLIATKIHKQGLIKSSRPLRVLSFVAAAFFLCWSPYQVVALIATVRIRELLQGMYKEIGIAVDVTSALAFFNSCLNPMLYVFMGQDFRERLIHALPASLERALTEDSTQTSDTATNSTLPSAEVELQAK

Compound	Activity [1]	Activity [2]
COc1cccc(NC(=O)CSc2nc3cc(OC)ccc3[nH]2)c1		Active
CCc1c(NC(=O)Nc2ccc(Cl)cc2)c(=O)n(-c2ccccc2)n1C	Active	
O=C1NCC(c2ccccc2)C1C(=O)N/N=C/C=C/c1ccc(Br)cc1 (configuration not stated)	inactive	inactive
COc1ccc2[nH]c(SCC(=O)Nc3ccc(OC)c(OC)c3)nc2c1	Active	Active
Cc1ccc2[nH]c(SCC(=O)Nc3cccc(C(F)(F)F)c3)nc2c1	inactive	inactive
COc1ccc(CCNC(=O)Nc2ccc(Cl)cc2)cc1	Active	
CCc1nc2ccccc2n1[C@@H]1CCN(C(=O)c2nc3cc(OC)ccc3[nH]2)C1	Active	
O=C(CSc1nc2ccccc2[nH]1)Nc1ccc([N+](=O)[O-])cc1	inactive	inactive
Cc1cccc2[nH]c(SCC(=O)Nc3ccc(Cl)c([N+](=O)[O-])c3)nc12	inactive	inactive
COc1ccc2[nH]c(SCC(=O)Nc3ccc([N+](=O)[O-])cc3)nc2c1		Active
O=C(Cc1ccc(Br)cc1)N/N=C/C=C/c1ccccc1[N+](=O)[O-]	Active	
COc1ccc2[nH]c(SCC(=O)Nc3ccc(Cl)cc3)nc2c1	Active	Active
CCC(Nc1ccc(OC)cc1)C(=O)N/N=C(C)/C=C/c1ccccc1 (configuration not stated)	Active	
COc1ccc(CCNC(=O)Nc2ccc(F)cc2)cc1	Active	
CSCC[C@H](NC(=O)[C@H](Cc1ccc(O)cc1)NC(=O)[C@H](CCCCN)NC(=O)[C@@H](N)Cc1c[nH]c2ccccc12)C(=O)N[C@H](C(=O)N[C@H](CCSC)C(N)=O)C(C)C	Active	Active
O=C(CN1CCN(c2ccc(Cl)cc2)CC1)Nc1ccc(Br)cc1	Active	
O=C(CN1CCN(c2ccc(F)cc2)CC1)Nc1ccc(Br)cc1	Active	
COc1ccc2[nH]c(SCC(=O)Nc3ccc(Br)cc3)nc2c1		Active
O=C(CN1CCN(c2ccccc2)CC1)Nc1ccc(Br)cc1	Active	
COc1ccccc1/C=C/C=N/NC(=O)Cc1cccs1	inactive	inactive
COc1ccc(NC(=O)CCCCc2cccs2)cc1	Active	
CCOc1ccc(C(=O)NN2C(=O)c3ccccc3NC2c2ccc(OC)cc2)cc1 (configuration not stated)	Active	
O=C(CN1CCN(c2ccccc2)CC1)Nc1cccc(Br)c1	inactive	inactive
O=C(CSc1nc2ccccc2s1)N/N=C/C=C/c1ccccc1[N+](=O)[O-]	inactive	inactive
COc1cccc(Cc2cc(C)nn(CC(=O)Nc3ccc4c(c3)OCO4)c2=O)c1		Active
O=C(N/N=C/c1ccc(-c2cccc(Br)c2)o1)c1cccnc1	Active	

Second part, the compound after the results:

Activity [1]	Activity [2]	Compound
Active		COc1ccc(C2Nc3ccccc3C(=O)N2NC(=O)c2ccc([N+](=O)[O-])cc2)cc1 (configuration not stated)
Active		COc1ccc(CCNC(=O)Nc2ccccc2)cc1
inactive	inactive	O=C(NCCc1ccc(Cl)cc1)Nc1ccccc1[N+](=O)[O-]
Active	Active	COc1ccc(NC(=S)NN2C(=O)CSC2c2c[nH]c3ccccc23)cc1 (configuration not stated)
Active		COc1ccc(CC(=O)N/N=C/C=C/c2ccccc2[N+](=O)[O-])cc1OC
inactive	inactive	O=C(NCCc1ccccc1)Nc1ccccc1
Active	Active	COc1ccc(NC(=O)Nc2ccc(C(=O)N3CCCCC3)cc2)cc1
	Active	CC1(C)CC(=O)C(C(c2cccc(OCc3ccccc3)c2)C2C(=O)CC(C)(C)CC2=O)C(=O)C1
Active		O=C(N/N=C/c1ccc(-c2cccc(C(F)(F)F)c2)o1)c1ccc(F)cc1
inactive	inactive	O=C(CN1CCN(c2ccccc2)CC1)Nc1ccc(F)c(Cl)c1
inactive	inactive	O=C(CSc1nc2ccccc2[nH]1)Nc1ccccc1
	Active	CCOc1ccc2[nH]c(SCC(=O)Nc3ccc(OC)cc3)nc2c1
Active		O=C(CN1CCN(c2cccc(Cl)c2)CC1)Nc1ccc(Br)cc1
Active		O=C1NCC(c2ccccc2)C1C(=O)N/N=C/C=C/c1ccccc1[N+](=O)[O-] (configuration not stated)
Active		Cc1c(Cl)cccc1N1CCN(CC(=O)Nc2ccc(Br)cc2)CC1
inactive	inactive	O=C(CSc1nc2ccccc2[nH]1)Nc1cccc(Br)c1
inactive	inactive	Cc1ccc(CCNC(=O)Nc2ccc(F)cc2)cc1
Active		CSc1ccc(NC(=O)Nc2c(C)n(C)n(-c3ccccc3)c2=O)cc1
Active		COc1ccc(CCNC(=O)Nc2ccc(Br)cc2)cc1

Activity [1]	Activity [2]	Compound
inactive	inactive	COc1ccc(CCNC(=O)Nc2ccc(Cl)cc2Cl)cc1
inactive	inactive	Cc1cccc(NC(=O)NCCc2ccc(Cl)cc2)c1
Active		Cc1ccc(Cl)cc1N1CCN(CC(=O)Nc2ccc(Br)cc2)CC1
	Active	CCOc1ccc(NC(=O)CSc2nc3cc(OC)ccc3[nH]2)cc1
Active		Cc1c(NC(=O)Nc2ccc(Br)cc2)c(=O)n(-c2ccccc2)n1C
	Active	COc1cc(/C=N/NC(=O)c2ccc3c(c2)OCO3)ccc1OCc1ccccc1
inactive	inactive	O=C(CN1CCN(c2ccccc2)CC1)Nc1ccccc1
inactive	inactive	O=C(CN1CCN(c2ccccc2)CC1)Nc1ccccc1Br
Active		O=C(NNC(=O)c1ccccc1[N+](=O)[O-])c1ccc(Cl)cc1
Active		O=C(CNc1ccccc1)N/N=C/C=C/c1ccccc1[N+](=O)[O-]
inactive	inactive	O=C(CN1CCN(c2ccccc2Cl)CC1)Nc1ccccc1
Active	Active	COc1ccc2[nH]c(SCC(=O)Nc3ccccc3OC)nc2c1
inactive	inactive	O=C(CN1CCN(c2ccccn2)CC1)Nc1ccc(Cl)cc1
Active	Active	CC(C)c1c(NC(=O)Nc2ccc(Cl)cc2)c(=O)n(-c2ccccc2)n1C
Active		COc1cccc(N2CCN(CC(=O)Nc3ccc(Br)cc3)CC2)c1
inactive	inactive	O=C(Cc1ccccc1)N/N=C/C=C/c1ccccc1[N+](=O)[O-]
Active	Active	CCCC(C)c1ccc(OCC(=O)N/N=C/c2ccsc2)cc1 (configuration not stated)
Active		Cc1ccc(N2CCN(CC(=O)Nc3ccc(Br)cc3)CC2)cc1Cl
	Active	COc1ccc2[nH]c(SCC(=O)Nc3ccccc3)nc2c1

From ChEMBL document CHEMBL1287661, “Computational structure-activity relationship analysis of small-molecule agonists for human formyl peptide receptors” (Eur J Med Chem, 2010)
